Laboratory results published in patent US9170253B2, “Method and device for measuring multiple physiological properties of cells” (Seahorse Bioscience, priority 2003, dated 2015).

Key:
CHO-M3 cells = test: Effect of carbachol on O2 consumption, CO2 production and extracellular acidification rates of CHO-M3 cells (stop flow cycles); assay type: cell-based, Chinese hamster
From the text: Chinese hamster ovary (CHO) cells were transfected to over-express the muscarinic receptor subtype m3. The prototype device described in Example 1 was then used to monitor O2 consumption, CO2 production, and extracellular acidification rates, following treatment with the well-known, general acetylcholine receptor agonist, Carbachol.
Materials and Methods: Cell culture reagents were obtained from Gibco BRL (Grand Island, N.Y.). Carbachol was purchased from Sigma Chemical Co. (St. Louis, Mo.). Bicarbonate-free DMEM medium was obtained from Specialty Media (Phillipsburg, N.J.). Polycarbonate membrane snapwells (12 mm diameter, 3 μm pore size) were obtained from Corning (Corning, N.Y.). CHO cells expressing m3-muscarinic receptors (CHO-M3 cells) were obtained from the American Type Tissue Culture (ATCC; Manassas, Va.). Cells were cultured in Ham's F-12 medium supplemented with 10% fetal bovine serum (Hyclone), 1% GlutaMax and 0.1% Gentamicin and were maintained in a 5% CO2 incubator. Cells were subcultured when they reached 80% confluency. CHO-M3 cells were seeded at a density of 2×10^5 onto a snapwell 24 hours prior to use. Immediately prior to testing, cells on snapwells were switched to bicarbonate-free DMEM medium combined with 3.7 g/l NaCl to maintain osmolarity (medium pH 7.4-7.5).
Protocol Description: Probes were calibrated immediately prior to testing. The bottom of the test vessel was filled with bicarbonate-free medium. The snapwell was removed from a 5% CO2 incubator, and the regular growth medium (Ham's F-12) was replaced with bicarbonate-free DMEM medium. Thereafter, the snapwell was placed into the test vessel. Bicarbonate-free medium was pipetted onto the top of the snapwell, and the cover piece of the test vessel was placed gently on top of the snapwell and screwed into place, compressing the assembly. The probe software was started, and the pH, CO2 and O2 analytes were measured over the next 3.5 hours. Following the initial 1.5 hours of perfusion at a rate of 78 μl/min, a series of stop flow (10 minutes each) and medium re-perfusion (10 minutes each, 78 μl/min) cycles were started. During the last 2 minutes of medium re-perfusion cycle number 5, 100 μM carbachol was perfused across the snapwell. During re-perfusion number 6, bicarbonate-free DMEM medium was once again perfused across the snapwell. A rate of change for the analytes was calculated during each stop flow cycle.
The first four series of perfusion/stop flow cycles were done to establish a noise band on the three analytes prior to carbachol treatment during perfusion number 5. Bicarbonate-free medium re-perfusion during per perfusion number 6 and the rates calculated during stop flow number 6 were to assess potential continuing post-carbachol treatment effects on analytes' rates. Resulting data are shown below in Table 6 and in FIG. 11.

C2C12 Myoblasts [1] = test: Effect of Rotenone on O2, CO2 and pH flux rates of C2C12 myoblasts (prototype enclosed sample chamber); assay type: cell-based, murine; design: key to O2 Rate / CO2 Rate: flux rate in nmol/minute; details: for CO2 Rate / O2 Rate / pH Rate: 20 minute measurement
From the text: (§1) The device included a cylindrical vessel, fabricated from polycarbonate material, and designed to receive a 12 mm diameter, polycarbonate membrane assembly (Corning Snapwell™ P/N 3802) with a pore size of approximately 3 μm. A cylindrical polycarbonate cover could be temporarily inserted into the vessel to form a smaller sample chamber, approximately 1.5 mm high, with a volume of about 160 microliter (μl). A series of bores around the perimeter of the vessel allowed the insertion of three 500 μm diameter optical fibers. The distal tip of each optical fiber was coated with a fluorescent sensing material to form a biosensor.
(§2) The three biosensors were designed to measure the partial pressures of O2 and CO2, and the pH of the media contained within the vessel. One fiber tip was coated with a matrix of Ruthenium dyes, encapsulated in oxygen permeable silicone rubber, to provide a readout of dissolved oxygen concentration. A second fiber tip was coated with a complex of Fluoroscene dye encapsulated in silicone rubber, to provide a readout of H^+ ion concentration (pH). A third biosensor was fabricated by using a CO2 permeable membrane to create a small reservoir of NaHCO3 surrounding a HydroxyPyrene Trisodium Salt (HPTS) pH sensitive dye. A change in CO2 concentration in the cell media would then cause a change in pH of this encapsulated reagent resulting in a measurable change in the fluorescent properties of the pH sensitive dye, and this change was calibrated to provide quantitative CO2 concentration data.
(§3) To determine the extracellular flux rates of O2 and CO2, the rates of change of partial pressures were divided by volume of each analytes available in the media (moles) to result in a value expressed in nmol/minute. The rate of acidification was expressed in mpH units/min (multiplied by 20 for scaling on the chart), but can easily be shown as protons per minute by calculating the number of available […] in the media buffer within the known sample volume.
Rotenone is known to inhibit cellular respiration by blocking NADH dehydrogenase in the respiratory chain. C2C12 Myoblasts were used to show this effect. 1.5×10^5 C2C12 myoblasts were seeded on membranes, incubated and placed in the measurement system along with 150 μl NaHCO3-free DMEM medium of as described in Example 3.
The dissolved concentrations of O2 and CO2, and the pH in the media were then measured every 5 seconds for a period of 20 minutes in order to determine a control baseline for each analyte flux. Once the baseline was established, a sequence of experiments were performed where varying doses of Rotenone (obtained from Sigma, St. Louis Mo.) were added to the cell media and a 20 minute measurement of analyte flux rates was performed. A control experiment was also performed using the highest dose of Rotenone, but without cells.

C2C12 Myoblasts [2] = test: Effect of 2,4 DNP on O2, CO2 and pH flux rates of C2C12 myoblasts (prototype enclosed sample chamber); assay type: cell-based, murine; details: for CO2 Rate / O2 Rate / pH Rate: 20 minute measurement
From the text: as §1, §2, §3
In this experiment, C2C12 myoblasts were seeded on 12 mm diameter polycarbonate membranes and incubated for 12 hours. Wells were then removed from the incubator, inspected visually, and placed into the measurement device. 160 μl of NaHCO3-free DMEM medium was then added, and the device was assembled to form an enclosed sample chamber.
The dissolved concentrations of O2 and CO2, and the pH in the media were then measured every 5 seconds for a period of 20 minutes in order to determine a control baseline for each analyte flux. Once the baseline was established, a sequence of experiments were performed where varying doses of 2,4 DNP (obtained from Sigma, St. Louis Mo.) were added to the cell media and a 20 minute measurement of analyte flux rates was performed. A control experiment was also performed using the highest dose of 2,4 DNP, but without cells.

[3] = Stop Flow 5, after 2-minute exposure to 100 μM carbachol
[4] = Stop Flow 6, post-carbachol, after re-perfusion with bicarbonate-free medium
[5] = Rotenone dose 25 (unit not given)
[6] = Rotenone dose 50 (unit not given)
[7] = Rotenone dose 100 (unit not given)
[8] = Rotenone dose 200 (unit not given)

SMILES: C[N+](C)(C)CCOC(N)=O [carbachol, Carbachol]
- CO2 rate versus baseline (CHO-M3 cells; 2-minute exposure to carbachol): increases above baseline levels
- O2 rate versus baseline (CHO-M3 cells; 2-minute exposure to carbachol): increases above baseline levels
- change in pH rate versus average baseline (CHO-M3 cells; 2-minute exposure to carbachol, 0.01 PHU/min baseline): doubling
- CO2 Rate (CHO-M3 cells; [3]): 0.20 nmol/min
- O2/CO2 Ratio (CHO-M3 cells; [3]): 1.99
- O2/pH Ratio (CHO-M3 cells; [3]): 0.26
- O2 Rate (CHO-M3 cells; [3]): 0.40 nmol/min
- pH Rate (CHO-M3 cells; [3]): 0.02 PHU/min
- CO2 Rate (CHO-M3 cells; [4]): 0.10 nmol/min
- O2/CO2 Ratio (CHO-M3 cells; [4]): 3.34
- O2/pH Ratio (CHO-M3 cells; [4]): 0.29
- O2 Rate (CHO-M3 cells; [4]): 0.33 nmol/min
- pH Rate (CHO-M3 cells; [4]): 0.01 PHU/min
- Post-treatment rates versus pre-treatment values (CHO-M3 cells; stop flow period number 6): essentially returned to pre-treatment values

SMILES: C=C(C)[C@H]1Cc2c(ccc3c2O[C@@H]2COc4cc(OC)c(OC)cc4[C@@H]2C3=O)O1 [Rotenone]
- CO2/O2 (C2C12 Myoblasts [1]; [5]): 4.00
- O2/pH (C2C12 Myoblasts [1]; [5]): 0.17
- CO2 Rate (C2C12 Myoblasts [1]; [5]): 1.76
- O2 Rate (C2C12 Myoblasts [1]; [5]): 0.44
- pH Rate (C2C12 Myoblasts [1]; [5]): 0.026
- CO2/O2 (C2C12 Myoblasts [1]; [6]): 8.02
- O2/pH (C2C12 Myoblasts [1]; [6]): 0.08
- CO2 Rate (C2C12 Myoblasts [1]; [6]): 2.08
- O2 Rate (C2C12 Myoblasts [1]; [6]): 0.26
- pH Rate (C2C12 Myoblasts [1]; [6]): 0.031
- CO2/O2 (C2C12 Myoblasts [1]; [7]): 12.18
- O2/pH (C2C12 Myoblasts [1]; [7]): 0.09
- CO2 Rate (C2C12 Myoblasts [1]; [7]): 2.34
- O2 Rate (C2C12 Myoblasts [1]; [7]): 0.19
- pH Rate (C2C12 Myoblasts [1]; [7]): 0.023
- CO2/O2 (C2C12 Myoblasts [1]; [8]): 69.84
- O2/pH (C2C12 Myoblasts [1]; [8]): 0.02
- CO2 Rate (C2C12 Myoblasts [1]; [8]): 2.24
- O2 Rate (C2C12 Myoblasts [1]; [8]): 0.04
- pH Rate (C2C12 Myoblasts [1]; [8]): 0.027
- O2 consumption rate (effect of treatment) (C2C12 Myoblasts [1]; over doses of Table 4): dose-dependent decrease

SMILES: O=[N+]([O-])c1ccc(O)c([N+](=O)[O-])c1 [2,4 DNP]
- CO2/O2 (C2C12 Myoblasts [2]; 2,4 DNP dose 10 μm): 2.18
- O2/pH (C2C12 Myoblasts [2]; 2,4 DNP dose 10 μm): 0.46
- CO2 Rate (C2C12 Myoblasts [2]; 2,4 DNP dose 10 μm): 2.78 nM/min
- O2 Rate (C2C12 Myoblasts [2]; 2,4 DNP dose 10 μm): 1.26 nM/min
- pH Rate (C2C12 Myoblasts [2]; 2,4 DNP dose 10 μm): 0.028 pH/min
- CO2/O2 (C2C12 Myoblasts [2]; 2,4 DNP dose 50 μm): 2.13
- O2/pH (C2C12 Myoblasts [2]; 2,4 DNP dose 50 μm): 0.64
- CO2 Rate (C2C12 Myoblasts [2]; 2,4 DNP dose 50 μm): 4.24 nM/min
- O2 Rate (C2C12 Myoblasts [2]; 2,4 DNP dose 50 μm): 1.99 nM/min
- pH Rate (C2C12 Myoblasts [2]; 2,4 DNP dose 50 μm): 0.031 pH/min
- CO2/O2 (C2C12 Myoblasts [2]; 2,4 DNP dose 100 μm): 2.00
- O2/pH (C2C12 Myoblasts [2]; 2,4 DNP dose 100 μm): 0.73
- CO2 Rate (C2C12 Myoblasts [2]; 2,4 DNP dose 100 μm): 4.59 nM/min
- O2 Rate (C2C12 Myoblasts [2]; 2,4 DNP dose 100 μm): 2.30 nM/min
- pH Rate (C2C12 Myoblasts [2]; 2,4 DNP dose 100 μm): 0.032 pH/min
- O2 consumption rates (effect of treatment) (C2C12 Myoblasts [2]; over doses of Table 3): dose-dependent increase
- extracellular acidification (effect of treatment) (C2C12 Myoblasts [2]; over doses of Table 3): little effect
